Entries after “also recorded” stand apart in the source; their conditions may differ.
Tests used:
[1] = tested on: TNF-alpha; assay: TNF-alpha production from LPS-stimulated human PBMC (sandwich ELISA); format: cell-based; details: for inhibition of LPS induced TNF-α production by human PBMC, in words: LPS-stimulated human PBMC
Description: Bacterial lipopolysaccharide (LPS) stimulates the production of a variety of cytokines, including TNF-alpha, from human PBMC; these cytokines in turn influence the development of T cells, supporting a T helper 1 conducive milieu. Human PBMC prepared from whole blood by buoyant density centrifugation were resuspended in CTCM. […] Following incubation for 24 h at 37° C. in 5% CO2-air, the cell culture supernatants were collected and tested for TNF-alpha levels by ‘sandwich’ ELISA. Briefly, 96-well Nunc MaxiSorp (Life Technologies, Paisley, UK) plates were coated with 50 μl of a 2 μg/ml solution of mouse anti-human TNF-alpha monoclonal antibody (Pharmingen, UK) in 0.05 M carbonate/bicarbonate buffer, pH 9.6 overnight at 4° C. After washing the plates three times with PBS-Tween, which contained phosphate buffered saline (PBS) with 0.5% (vol/vol) Tween 20 (Sigma, Poole, UK), the plates were blocked with 1% (wt/vol) bovine serum albumin (BSA) (Sigma, Poole, UK) at room temperature for 2 h. Following three washes with PBS-Tween, 50 μl of cell culture supernatants were added and incubated overnight at 4° C.; standard human TNF-alpha (Pharmingen, UK) ranging from 2000 to 31.25 pg/ml were included for each plate. After four washes with PBS-Tween, 50 μl of a second antibody, biotinylated mouse anti-human TNF-alpha monoclonal antibody (Pharmingen, UK) was added at 0.5 μg/1 ml diluted in 1% BSA in PBS-Tween and incubated at room temperature for 1 h. Following four washes, the bound biotinylated antibody was detected with 50 μl of a 1:1,000 dilution of Streptavidin-peroxidase (Pharmingen, UK). At the end of an hour incubation at room temperature, the plates were thoroughly washed six times with PBS-Tween and the assay was developed by the addition of 100 μl of 0.1 mg/ml of tetramethyl benzidine subtrate (Sigma, Poole, UK) in 0.1 M sodium acetate buffer, pH 6 containing 0.03% H2O2. The enzyme reaction was stopped with 50 μl of 2.5 M H2SO4 after an incubation of 10 minutes at room temperature and the development was read at 450 nm with a spectrophotometric 96-well plate reader (Dynex).

[2] = tested on: murine spleen cells; details: Infection and Immunity vol.66 no.1, 1998; cited from earlier work
[3] = tested on: TNFα; details: Infection and Immunity vol.66 no.1, 1998; cited from earlier work
[4] = tested on: IL-2; assay: IL-2 production from anti-CD3 and anti-CD28 stimulated hPBMC (sandwich ELISA); format: cell-based, human; details: four donors, 24 h supernatants
Description: Anti-CD3 and anti-CD28 antibodies were used to assess the effect of quorum sensing signal molecules (PQS, OdDHL and OHHL) on T-cell proliferation and IL-2 secretion. Proliferation was assessed by the incorporation of [^3H]-thymidine into the DNA of PBMC and the release of cytokines in the culture supernatants was determined by ‘sandwich’ ELISA. Blood specimens were obtained with consent from four healthy human volunteers (aged between 20 and 50 years). Human PBMC were isolated from heparinised whole blood by buoyant density centrifugation over Histopaque 1077 (Sigma, Poole, UK) at 600 g for 20 minutes. […] Following the addition of 25 μl of scintillant (MicroScint-O™; Packard Bioscience Ltd. UK) to each well in the filter plates, the radioactivity in the filters was measured with a β-scintillation counter (TopCount™, Packard Bioscience Ltd, UK) according to manufacturer's specifications. […]
When T cells in hPBMC are challenged with anti-CD3 and anti-CD28 antibodies, the cytokine IL-2 is released into the culture supernatants. The levels of cytokine produced in the culture supernatants after 24 h were determined in a ‘sandwich’ ELISA. […] Following four washes, the bound biotinylated antibody was detected with 50 μl of a 1:1,000 dilution of streptavidin-peroxidase (BD Pharmingen, UK). […]

Compound | IC50 ([1]; Experiment III, read-out: IC50 in inhibition of LPS induced production of TNF-α by human PBMC) [µM] | inhibition of LPS induced TNF-α production by human PBMC, in words ([1]; listed as OdDHL) | inhibition of ConA mitogen stimulated proliferation of murine spleen cells [2] | inhibition of TNFα production by LPS-stimulated adherent murine peritoneal macrophages [3] | inhibition of release of IL-2 from hPBMC stimulated via CD3 and CD28, in words ([4]; listed as OdDHL) | inhibition of LPS induced TNF-α production by human PBMC, in words [1] | inhibition of release of IL-2 from hPBMC stimulated via CD3 and CD28, in words [4]
CCCCCCCCCC(=O)CC(=O)N[C@H]1CCOC1=O [Example 6] | 17 | inhibited the secretion | inhibiting | inhibiting | inhibited in a dose dependent manner the release of IL-2; also recorded: inhibits the release of IL-2 |  | 
CCCCCCCc1[nH]c2ccccc2c(=O)c1O [PQS] |  |  |  |  |  | not inhibited | but not PQS, inhibits the release of IL-2

Source: patent US7371779B2, “Synergistic compositions of N-acylhomoserine lactones and 4-quinolones” (The Secretary of State for Defense Science and Technology, priority 2001, dated 2008)
